2 molecules from patent US10111847B2, “Compounds and methods for modulating vascular injury” (The Regents of the University of California, priority 2012, dated 2018) can be followed below.

In one experiment the test system is TNF-α-stimulated EC. Put plainly: U937 monocyte adhesion to TNF-α-stimulated EC (Maresin-1). The class given is cell-based, human. The settings on record: 1-100 nM, 30 min pretreatment; TNFα 1 ng/ml 4 hr. How it is done:
MaR-1. VSMCs and ECs were seeded on a 96 well plate (20000 cells/well for VSMCs and 50000 cells/well for ECs) and after 2 days, were treated with Maresin-1 (1-100 nM) for 30 min followed by TNF-α for 4 hr and then calcein AM-labeled U937 cells were added on top of the VSMCs. After 15-minute incubation at 37 C, unbound cells were washed off with cold PBS. Fluorescence measurements (ex 494 nm, em 517 nm) of bound monocytes were taken with a plate reader. For capturing images, the assay was performed in 8-well chamber slides (Nunc Labtek) and images were taken after cold PBS wash (three times) following U937 incubation.
FIGS. 15A-15D. Representative images of Calcein-AM labeled U937 monocytes adhered to human sv-VSMCs pretreated with vehicle (A, B) or 7S-Maresin-1 (C) or 7S-Maresin-1 and pertussis toxin (D) for 30 min, followed by TNFα at 10 ng/ml for 4 hr (B, C, D). (E) Quantitative analysis of U937 adhesion assay in human sv-VSMCs and (F) human sv-ECs (1 ng/ml TNFα used for EC cells). […] Bar graph represents net quantitative densitometry analysis. […] Expression of MCP-1 was measured by qRT-PCR, and normalized to unstimulated cells (n=3, results are mean±SEM, P<0.05 for Mar-1 (10 and 100 nM) vs TNF alone, unpaired t-test).

Another experiment deals with ICAM-1, IL-1β, and IL-1α. Description: Gene expression in VSMC in presence or absence of pertussis toxin (PTX). The following applies: RvD2 10 nM; PTX 100 ng/ml; TNF-α. The class given is cell-based, human. How it is done: Cells are plated onto 6-well plates at 100% confluency in DMEM plus 10% FBS and allowed to attached overnight. Cells are then made quiescent by placing in serum-free media for 48-72 hours prior to start of experiments. Cells are treated with or without RvD1 or RvD2 at the indicated concentrations for one hour followed by co-incubation with cytokine (TNF-α 10 ng/ml) for up to 18 hours. In a separate set of experiments to examine the role of G-protein receptors, VSMCs are exposed to TNF-α and RvD2 (10 nM) as described above, in the presence or absence of pertussis toxin (PTX 100 ng/ml). Total RNA from rabbit sample or cells is isolated with PureLink RNA Mini kit (Ambion Life Technologies, Carlsbad, Calif.) with RNase-free DNase treatment according to manufacturer's protocol. One microgram of total RNA (from either VSMC or rabbit tissue) is used to generate cDNA using High Capacity cDNA Reverse Transcription Kit (Applied Biosystems, Foster City, Calif.) for subsequent RT-PCR reactions. Sybrgreen Amplified DNA is detected by incorporation SYBR Green (Qiagen, Germantown, Md.). […]
FIG. 9: Effects of RvD2 on gene expression in VSMC are sensitive to pertussis toxin (PTX). […] RNA was harvested and analyzed for the expression of ICAM-1, IL-1β, and IL-1α by qPCR (n=3, results are mean±SEM, **P<0.01, *P<0.05, one-way ANOVA followed by Bonferroni's post hoc test).

The subject of another experiment is carotid artery. Description: Mouse carotid artery ligation model, neointima formation. The class given is in vivo, FVB Mice. The settings on record: intraperitoneal 100 ng/dose on days 0, 1, 3, 5 and 7; sacrificed at 14 days. How it is done:
To examine the potential therapeutic effects of systemic administration of pro-resolving mediators in acute vascular injury, a standardized mouse model of carotid ligation was employed. FVB Mice (N=23) were treated with intraperitoneal administration of RvD2 (100 ng/dose), 7R Mar-1 (100 ng/dose) or vehicle on days 0 (4 hrs prior to carotid injury), 1, 3, 5 and 7. Total dose received was 500 ng/mouse. Unilateral carotid ligation was performed as a standardized model of vascular injury, induced by low shear. Animals were then sacrificed at 14 days and perfusion-fixed vessels explanted for analysis. Following elastin staining, neointima (NI) and medial (M) compartments were measured by a blinded observer, and ratios (area and average wall thickness) calculated. Analysis was performed at mid CCA level (2.5 mm from ligature).
FIG. 22. (A)-(C), depict a cross-section of a carotid artery at mid CCA level (2.5 mm from ligature) from carotid ligation mouse model administered vehicle (A), RvD2 (B), or 7R-Mar-1 (C). (D)-(E) depict NUM ratio of the cross-section of the carotid artery at mid CCA level from carotid ligation mouse model administered vehicle, RvD2, or 7R-Mar-1. […]

Molecules are shown by their SMILES.

As to `CC/C=C\C/C=C\C[C@H](O)\C=C/C=C/C=C/[C@@H](O)C/C=C\CCC(=O)O` [7S-Maresin-1, 7S,14R-dihydroxydocosa-4Z,8E,10Z,12Z,16Z,19Z-hexaenoic acid], the “monocyte adhesion (U937) to TNF-α-stimulated EC” value in the experiment on TNF-α-stimulated EC is listed as “dose-dependent inhibition”.

Take `CC/C=C\C[C@H](O)[C@H](O)/C=C/C=C/C=C\C=C\[C@@H](O)C/C=C\CCC(=O)O` [RvD2, resolvin D2]: the “effect of pertussis toxin on inhibition of ICAM-1, IL-1β, and IL-1α gene expression” value in the experiment on ICAM-1, IL-1β, and IL-1α is “abrogation of the inhibitory effects”. The “neointima formation following carotid artery ligation” value with carotid artery is on record as “Reduces”.
